Experiments:
breast cancer cells = assay: Model of disseminated disease: liver colonization from a subcutaneous xenograft primary; type: in vivo; details: mice; subcutaneous (SC) xenograft primary; oral treatment
Description: (§1) Inhibition was observed up to 24 hours in certain models.

[1] = Phase 2 trial of dovitinib: adverse events; type: in vivo, human; details: as of January 2011
Description: Patient selection was performed according to FISH/CISH for FGFR1 (cut-off≧6 gene copies). […] The primary endpoint was RECIST best overall response rate in pts with measurable disease per external radiology review.
Inclusion Criteria: • 1. Patients have histological confirmation of breast carcinoma with a clinical diagnosis of IBC based on presence of inflammatory changes in the involved breast, including diffuse erythema and edema (peau d orange), with or without an underlying palpable mass involving the majority of the skin of the breast. Pathological evidence of dermal lymphatic invasion should be noted but is not required for diagnosis. • 2. Patients have stage IV disease with local or distant relapse • 3. Patients have negative HER2 expression by IHC (defined as 0 or 1+), or FISH (fluorescence in situ hybridization). If HER2 is 2+, negative HER2 expression must be confirmed by FISH. • 4. Patients are able to swallow and retain oral medication. • 5. Patients have ECOG performance status 0-2. • 6. Patients have received up to 3 standard chemotherapies for metastatic disease and have relapsed. • 7. Patients have ability and willingness to sign written informed consent. • 8. Patients are 18 years of age or older. • 9. Female patients of childbearing potential (A person not free from menses>2 years or not surgically sterilized) must be willing to use two adequate barrier methods of contraception to prevent pregnancy or agree to abstain from heterosexual activity throughout the study. • 10. Female patients of childbearing potential must have negative serum pregnancy test. • 11. If Patients have been treated with anti-VEGF agents, such as Bevacizumab, last dose must be >4 weeks. • 12. Patients have biopsy tissue of the metastatic disease (including chest wall or regional nodes) available (paraffin blocks or up to 20 unstained slides), if no biopsy tissue available, a biopsy (or thoracentesis if patient has pleural effusion only) of the metastatic disease will be performed to confirm the diagnoses.
Exclusion Criteria: • 1. Patients are receiving concurrent anti-cancer therapy (chemotherapy, immunotherapy, radiation therapy and biological therapy) while taking study medication. • 2. Abnormal liver functions consisting of any of the following: a) Serum bilirubin>/=1.5×ULN, b) AST and ALT>/=2.5×ULN, (for patients with known liver metastasis, AST and ALT</=5×ULN is allowed), ANC<1.5. • 3. Patients have an active infection and require IV or oral antibiotics. • 4. Impaired cardiac function or clinically significant cardiac diseases, including any of the following: a) History or presence of serious uncontrolled ventricular arrhythmias or presence of atrial fibrillation; b) Clinically significant resting bradycardia (<50 beats per minute); c) LVEF<45% assessed by 2-D echocardiogram (ECHO) or Multiple gated acquisition scanning (MUGA); d) Any of the following within 6 months prior to study entry: myocardial infarction (MI), severe/unstable angina, Coronary Artery Bypass Graft (CABG), Congestive Heart Failure (CHF), Cerebrovascular Accident (CVA), Transient Ischemic Attack (TIA), Pulmonary Embolism (PE); e) Uncontrolled hypertension defined by an SBP>150 and/or a DBP>100 mm Hg with or without anti-hypertensive medication. • 5. History of gastrointestinal disorders (medical disorders or extensive surgery) which may interfere with the absorption of the study drug. • 6. Patients have a concurrent disease or condition that would make them inappropriate for study participation, or any serious medical disorder that would interfere with patients' safety. • 7. Patients with only locally or regionally confined disease without evidence of metastatic disease.

[2] = tested on: FGFR downstream-signaling proteins AKT and ERK; assay: Tyrosine phosphorylation of FGFR downstream-signaling proteins in xenograft tumors; type: in vivo, mice; details: following a single oral dose
Description: as §1

tumor xenograft models = assay: Antitumor activity in tumor xenograft models in athymic mice; type: in vivo; details: administered orally, all models tested
Description: as §1

CN1CCN(c2ccc3nc(-c4c(N)c5c(F)cccc5[nH]c4=O)[nH]c3c2)CC1 [dovitinib, 4-amino-5-fluoro-3-[6-(4-methylpiperazin-1-yl)-1H-benzimidazol-2-yl]-1H-quinolin-2-one]
colonization of breast cancer cells in the livers (breast cancer cells): significantly reduced | adverse event: asthenia, Group 3 ([1]; Group 3): 17% | adverse event: diarrhea, Group 3 ([1]; Group 3): 6% | adverse event: nausea, Group 3 ([1]; Group 3): 5% | adverse event: vomiting ([1]; all grades, 77 patients with data, 500 mg once daily, 5-day on/2-day off): 75% | adverse event: asthenia ([1]; all grades): 61% | adverse event: diarrhea ([1]; all grades): 72% | adverse event: nausea ([1]; all grades): 62% | adverse event: vomiting, grade 3 [Group 3] ([1]; grade 3): 6% | duration of inhibition of AKT and ERK phosphorylation ([2]; certain models): up to 24 hours | tyrosine phosphorylation of AKT and ERK ([2]; xenograft tumors): inhibited | antitumor activity in tumor xenograft models (tumor xenograft models): anti-tumor responses, ranging from growth inhibition and stasis to regression
